Assay results: ChEMBL document CHEMBL1146036, “Structural determinants of opioid activity in derivatives of 14-aminomorphinones: effect of substitution in the aromatic ring of cinnamoylaminomorphinones and codeinones” (J Med Chem, 2006)

Legend:
[1] = system: Mus musculus; assay: Agonist activity in sc dosed mouse by phenylquinone abdominal stretching assay; type: functional; details: Abdomen
[2] = target: T1, Mu-type opioid receptor (Homo sapiens, UniProt P35372); assay: Stimulation of [35S]GTPgammaS binding to human recombinant MOR; type: functional
T1 sequence (P35372 whole entry): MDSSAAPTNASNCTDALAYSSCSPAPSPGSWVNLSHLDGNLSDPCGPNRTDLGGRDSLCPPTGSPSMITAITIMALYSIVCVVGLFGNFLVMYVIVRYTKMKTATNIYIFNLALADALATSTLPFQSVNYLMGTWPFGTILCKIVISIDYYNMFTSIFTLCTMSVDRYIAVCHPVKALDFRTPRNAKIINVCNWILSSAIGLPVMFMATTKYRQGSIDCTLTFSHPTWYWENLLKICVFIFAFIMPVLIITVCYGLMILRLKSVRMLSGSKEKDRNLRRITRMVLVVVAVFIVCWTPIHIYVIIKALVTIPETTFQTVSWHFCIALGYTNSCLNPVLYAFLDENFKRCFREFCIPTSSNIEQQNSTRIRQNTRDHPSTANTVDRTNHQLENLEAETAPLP

[3] = target: T2, Delta-type opioid receptor (Homo sapiens, UniProt P41143); assay: Stimulation of [35S]GTPgammaS binding to human recombinant DOR relative to DPDPE; type: functional
T2 sequence (P41143 whole entry): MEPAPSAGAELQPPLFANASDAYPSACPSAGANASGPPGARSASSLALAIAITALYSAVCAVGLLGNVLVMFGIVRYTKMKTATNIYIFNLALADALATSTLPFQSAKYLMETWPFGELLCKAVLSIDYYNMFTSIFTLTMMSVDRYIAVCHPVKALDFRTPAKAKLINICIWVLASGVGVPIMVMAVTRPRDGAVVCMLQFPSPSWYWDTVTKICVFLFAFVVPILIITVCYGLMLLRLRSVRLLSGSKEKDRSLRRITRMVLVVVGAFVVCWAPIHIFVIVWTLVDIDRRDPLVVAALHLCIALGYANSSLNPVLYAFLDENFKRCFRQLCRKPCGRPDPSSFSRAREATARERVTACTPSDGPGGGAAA

[4] = target: T2, Delta-type opioid receptor; assay: Stimulation of [35S]GTP-gamma-S binding to human recombinant DOR; type: functional
[5] = system: Mus musculus; assay: Antagonist activity against morphine-induced antinociception in sc dosed mouse by tail flick assay; type: functional
[6] = target: T3, Kappa-type opioid receptor (Homo sapiens, UniProt P41145); assay: biochemical; type: cell-based, CHO
T3 sequence (P41145 whole entry): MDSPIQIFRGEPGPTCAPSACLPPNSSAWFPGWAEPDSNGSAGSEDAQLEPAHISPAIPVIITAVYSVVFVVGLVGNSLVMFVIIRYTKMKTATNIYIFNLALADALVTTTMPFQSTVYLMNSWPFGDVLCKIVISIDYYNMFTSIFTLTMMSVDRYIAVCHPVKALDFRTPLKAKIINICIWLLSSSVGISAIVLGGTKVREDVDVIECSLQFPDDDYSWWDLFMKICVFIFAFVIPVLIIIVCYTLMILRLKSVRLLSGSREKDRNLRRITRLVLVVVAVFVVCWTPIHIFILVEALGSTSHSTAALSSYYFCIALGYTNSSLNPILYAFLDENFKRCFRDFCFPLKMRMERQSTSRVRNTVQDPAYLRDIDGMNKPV
Description: Displacement of [3H]U-69593 from human recombinant KOR expressed in CHO cells

[7] = target: T1, Mu-type opioid receptor; assay: Displacement of [3H]DAMGO from human recombinant MOR expressed in CHO cells; type: cell-based
[8] = system: Mus musculus; assay: Agonist activity in sc dosed mouse by tail flick assay; type: functional
[9] = target: T3, Kappa-type opioid receptor; assay: Stimulation of [35S]GTP-gamma-S binding to human recombinant KOR; type: functional
[10] = target: T2, Delta-type opioid receptor; assay: Displacement of [3H]Cl-DPDPE from human recombinant DOR expressed in CHO cells; type: cell-based
[11] = system: Mus musculus; assay: Agonist activity in mouse by phenylquinone abdominal stretching assay at 0.3 mg/kg, sc; type: functional; details: Abdomen, route subcutaneous
[12] = system: Mus musculus; assay: Agonist activity in mouse by hot water tail withdrawal assay at 32 mg/kg, sc; type: functional; details: route subcutaneous
[13] = system: Mus musculus; assay: Antagonist activity against morphine-induced antinociception in sc dosed mouse by hot water tail withdrawal assay at 32 mg/kg, sc; type: functional; set-up: scale not given: the % may be the effect or the level left; details: route subcutaneous
[14] = target: Kappa-type opioid receptor (Cavia porcellus, UniProt P41144); assay: Binding affinity to KOR in guinea pig brain membrane; type: cell membranes
Chain of Kappa-type opioid receptor (Cavia porcellus, UniProt P41144) (P41144 whole entry): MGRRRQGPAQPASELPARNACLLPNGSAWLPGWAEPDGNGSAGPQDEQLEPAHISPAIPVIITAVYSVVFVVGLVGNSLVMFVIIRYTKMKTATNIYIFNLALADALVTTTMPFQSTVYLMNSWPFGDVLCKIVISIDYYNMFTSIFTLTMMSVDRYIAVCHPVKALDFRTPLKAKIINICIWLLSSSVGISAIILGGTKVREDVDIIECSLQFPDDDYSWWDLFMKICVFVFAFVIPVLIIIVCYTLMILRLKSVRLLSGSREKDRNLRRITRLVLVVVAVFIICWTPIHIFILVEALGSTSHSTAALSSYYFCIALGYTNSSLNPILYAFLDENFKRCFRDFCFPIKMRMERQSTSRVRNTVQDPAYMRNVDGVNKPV

[15] = target: Mu-type opioid receptor (Cavia porcellus, UniProt P97266); assay: Binding affinity to MOR in guinea pig brain membrane; type: cell membranes
Chain of Mu-type opioid receptor (Cavia porcellus, UniProt P97266) (P97266 whole entry): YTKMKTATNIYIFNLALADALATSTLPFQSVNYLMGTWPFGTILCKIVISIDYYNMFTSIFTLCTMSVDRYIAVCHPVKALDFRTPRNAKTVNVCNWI

[16] = system: Mus musculus; assay: Agonist activity in sc dosed mouse by hot water tail withdrawal assay at 1 mg/kg, sc; type: functional; details: route subcutaneous
[17] = target: T2, Delta-type opioid receptor; details: CHO
Description: Reversal of stimulation of [35S]GTP-gamma-S binding to human recombinant DOR transfected in CHO cells relative to DPDPE

[18] = target: T1, Mu-type opioid receptor; assay: Reversal of stimulation of [35S]GTP-gamma-S binding to human recombinant MOR transfected in CHO cells relative to DAMGO; type: functional, cell-based
[19] = target: T3, Kappa-type opioid receptor; details: CHO
Description: Reversal of stimulation of [35S]GTPgammaS binding to human recombinant KOR transfected in CHO cells relative to U69593

[20] = system: Mus musculus; assay: Agonist activity in mouse by phenylquinone abdominal stretching assay at 1 mg/kg, sc; type: functional; details: Abdomen, route subcutaneous
[21] = target: T1, Mu-type opioid receptor; assay: Activity at human recombinant MOR transfected in CHO cells assessed as reversal of stimulation of [35S]GTP-gamma-S binding; type: functional, cell-based; details: filed as antagonist
[22] = target: T2, Delta-type opioid receptor; assay: Activity at human recombinant DOR transfected in CHO cells assessed as reversal of stimulation of [35S]GTP-gamma-S binding; type: functional, cell-based
[23] = target: T3, Kappa-type opioid receptor; assay: Activity at human recombinant KOR transfected in CHO cells assessed as reversal of stimulation of [35S]GTPgammaS binding; type: functional, cell-based; details: filed as antagonist
[24] = system: Mus musculus; assay: Antagonist activity against morphine-induced antinociception in sc dosed mouse by tail flick assay at 3 mg/kg, sc; type: functional; details: route subcutaneous
[25] = system: Mus musculus; assay: Agonist activity in mouse by phenylquinone abdominal stretching assay at 30 mg/kg, sc; type: functional; details: Abdomen, route subcutaneous
[26] = system: Mus musculus; assay: Agonist activity in sc dosed mouse by hot water tail withdrawal assay at 10 mg/kg, sc; type: functional; details: route subcutaneous

Compound: Cc1ccccc1/C=C/C(=O)N[C@@]12CCC(=O)[C@@H]3Oc4c(O)ccc5c4[C@@]31CCN(C)[C@@H]2C5
- ED50 [1]: 0.03 mg/kg
- EC50 [2]: 0.04 nM
- Activity [3]: 71%
- EC50 [4]: 0.4 nM
- AD50 [5]: >30 mg/kg
- Ki [6]: 0.23 nM
- Ki [7]: 0.21 nM
- ED50 [8]: 0.08 mg/kg
- EC50 [9]: 0.2 nM
- Ki [10]: 0.11 nM

Compound: O=C(/C=C/c1ccccc1)N[C@@]12CCC(=O)[C@@H]3Oc4c(O)ccc5c4[C@@]31CCN(CC1CC1)[C@@H]2C5
- inhibition in vivo at 0.3 mg/kg [11]: 66%
- AD50 [5]: 1.3 mg/kg
- Activity [12]: 0%
- Activity [13]: 40%
- ED50 [8]: > 30 mg/kg

Compound: COc1ccc2c3c1O[C@H]1C(=O)CC[C@@]4(NC(=O)/C=C/c5ccccc5C)[C@@H](C2)N(CC2CC2)CC[C@]314
- ED50 [1]: 0.03 mg/kg
- EC50 [2]: 2.6 nM
- Ki [14]: 2.1 nM
- Activity [3]: 39%
- EC50 [4]: 20.9 nM
- AD50 [5]: >30 mg/kg
- Ki [15]: 0.2 nM
- Activity [16]: >90%
- Activity [13]: 10%
- ED50 [8]: 0.03 mg/kg
- EC50 [9]: 1.8 nM

Compound: Cc1ccc(/C=C/C(=O)N[C@@]23CCC(=O)[C@@H]4Oc5c(O)ccc6c5[C@@]42CCN(C)[C@@H]3C6)cc1
- Ke [17]: 2.2 nM
- Ke [18]: 0.3 nM
- Ke [19]: 4.1 nM
- inhibition in vivo at 1 mg/kg [20]: 57%
- Activity [21]: Antagonist
- AD50 [5]: 0.6 mg/kg
- Ki [6]: 1.5 nM
- Ki [7]: 0.34 nM
- ED50 [8]: > 30 mg/kg
- Activity ([22]; filed as antagonist): Antagonist
- Ki [10]: 4 nM
- Activity [23]: Antagonist

Compound: COc1ccc2c3c1O[C@H]1C(=O)CC[C@@]4(NC(=O)/C=C/c5ccccc5[N+](=O)[O-])[C@@H](C2)N(CC2CC2)CC[C@]314
- Activity [12]: 40%

Compound: CN1CC[C@]23c4c5ccc(O)c4O[C@H]2C(=O)C=C[C@@]3(NC(=O)/C=C/c2ccc(Cl)cc2)[C@H]1C5
- AD50 [5]: >30 mg/kg
- ED50 [8]: 0.5 mg/kg

Compound: O=C(/C=C/c1ccccc1Cl)N[C@@]12CCC(=O)[C@@H]3Oc4c(O)ccc5c4[C@@]31CCN(CC1CC1)[C@@H]2C5
- Ke [17]: 0.67 nM
- Ke [18]: 0.45 nM
- Ke [19]: 0.38 nM
- Activity [12]: 0%
- Ki [6]: 2.4 nM
- Activity [13]: 65%
- Ki [7]: 0.71 nM
- Ki [10]: 1.3 nM

Compound: COc1ccc2c3c1O[C@H]1C(=O)CC[C@@]4(NC(=O)/C=C/c5ccc(Cl)cc5)[C@@H](C2)N(C)CC[C@]314
- ED50 [1]: 0.02 mg/kg
- EC50 [2]: 0.9 nM
- Activity [3]: 50%
- EC50 [4]: 5 nM
- AD50 [5]: >30 mg/kg
- Ki [7]: 0.6 nM
- ED50 [8]: 0.04 mg/kg
- Ki [10]: 1 nM

Compound: Cc1ccccc1/C=C/C(=O)N[C@@]12CCC(=O)[C@@H]3Oc4c(O)ccc5c4[C@@]31CCN(CC1CC1)[C@@H]2C5
- ED50 [1]: 3.17 mg/kg
- Ke [17]: 0.4 nM
- Ke [18]: 0.29 nM
- Ke [19]: 0.16 nM
- Activity [12]: 0%
- Ki [6]: 1.5 nM
- Activity [13]: 65%
- Ki [7]: 0.72 nM
- ED50 [8]: > 30 mg/kg
- Ki [10]: 1.25 nM
- inhibition in vivo at 3 mg/kg [24]: 50%

Compound: COc1ccc2c3c1O[C@H]1C(=O)CC[C@@]4(NC(=O)/C=C/c5ccc(C)cc5)[C@@H](C2)N(CC2CC2)CC[C@]314
- ED50 [1]: 0.1 mg/kg
- AD50 [5]: 5.7 mg/kg
- Activity [12]: 10%
- Activity [13]: 40%
- ED50 [8]: > 30 mg/kg

Compound: COc1ccc2c3c1O[C@H]1C(=O)CC[C@@]4(NC(=O)/C=C/c5ccccc5C)[C@@H](C2)N(C)CC[C@]314
- EC50 [2]: 0.5 nM
- Activity [3]: 108%
- EC50 [4]: 4.6 nM
- Ki [6]: 2.3 nM
- Ki [7]: 0.4 nM
- EC50 [9]: 5.6 nM
- Ki [10]: 0.42 nM

Compound: Cc1ccc(CCC(=O)N[C@@]23CCC(=O)[C@@H]4Oc5c(O)ccc6c5[C@@]42CCN(C)[C@@H]3C6)cc1
- ED50 [1]: 0.09 mg/kg
- Ke ([17]; filed as partial agonist): Partial agonist
- Ke [18]: 0.32 nM
- Ke [19]: 4.9 nM
- Activity [21]: Antagonist
- AD50 [5]: >30 mg/kg
- Ki [6]: 0.57 nM
- Ki [7]: 0.35 nM
- ED50 [8]: 0.5 mg/kg
- Activity ([22]; filed as partial agonist): Partial agonist
- Ki [10]: 1.25 nM
- Activity [23]: Antagonist

Compound: O=C(/C=C/c1ccc([N+](=O)[O-])cc1)N[C@@]12CCC(=O)[C@@H]3Oc4c(O)ccc5c4[C@@]31CCN(CC1CC1)[C@@H]2C5
- Activity [12]: 40%
- Activity [13]: >90%

Compound: O=C(/C=C/c1ccc(Cl)cc1)N[C@@]12CCC(=O)[C@@H]3Oc4c(O)ccc5c4[C@@]31CCN(CC1CC1)[C@@H]2C5 [CLOCINNAMOX]
- Ke [17]: 0.19 nM
- Ke [18]: 0.53 nM
- inhibition in vivo at 30 mg/kg [25]: 69%
- Ke [19]: 0.1 nM
- AD50 [5]: 0.12 mg/kg
- Activity [12]: 0%
- Ki [6]: 1.4 nM
- Activity [13]: >90%
- Ki [7]: 2.98 nM
- ED50 [8]: > 30 mg/kg
- Ki [10]: 2.7 nM

Compound: COc1ccc2c3c1O[C@H]1C(=O)CC[C@@]4(NC(=O)/C=C/c5ccc([N+](=O)[O-])cc5)[C@@H](C2)N(CC2CC2)CC[C@]314
- Activity [26]: >90%
- Activity [13]: 40%

Compound: COc1ccc2c3c1O[C@H]1C(=O)CC[C@@]4(NC(=O)/C=C/c5ccc(C)cc5)[C@@H](C2)N(C)CC[C@]314
- ED50 [1]: 0.4 mg/kg
- EC50 [2]: 2.5 nM
- Activity [3]: 86%
- EC50 [4]: 76 nM
- AD50 [5]: >30 mg/kg
- Ki [6]: 9.9 nM
- Ki [7]: 0.49 nM
- ED50 [8]: 0.06 mg/kg
- EC50 [9]: 84 nM
- Ki [10]: 2.9 nM

Compound: COc1ccc2c3c1O[C@H]1C(=O)CC[C@@]4(NC(=O)/C=C/c5ccccc5)[C@@H](C2)N(CC2CC2)CC[C@]314
- Activity [12]: 40%
- Activity [13]: 65%

Compound: COc1ccc2c3c1O[C@H]1C(=O)CC[C@@]4(NC(=O)/C=C/c5ccc(Cl)cc5)[C@@H](C2)N(CC2CC2)CC[C@]314
- ED50 [1]: 0.2 mg/kg
- Ke [17]: 7.2 nM
- AD50 [5]: >6 mg/kg
- Activity [12]: 0%
- Activity [13]: 65%
- ED50 [8]: > 30 mg/kg
- Ki [10]: 4.8 nM

Compound: COc1ccc2c3c1O[C@H]1C(=O)CC[C@@]4(NC(=O)/C=C/c5ccccc5Cl)[C@@H](C2)N(C)CC[C@]314
- EC50 [2]: 0.5 nM
- Activity [3]: 110%
- EC50 [4]: 2.2 nM
- Ki [6]: 2.5 nM
- Ki [7]: 0.68 nM
- EC50 [9]: 8.5 nM
- Ki [10]: 0.58 nM

Compound: COc1ccc2c3c1O[C@H]1C(=O)CC[C@@]4(NC(=O)/C=C/c5ccccc5Cl)[C@@H](C2)N(CC2CC2)CC[C@]314
- EC50 [2]: 3.8 nM
- Ki [14]: 2.4 nM
- Activity [3]: 36%
- EC50 [4]: 17.5 nM
- Activity [26]: >90%
- Ki [15]: 0.6 nM
- Activity [13]: 10%
- EC50 [9]: 9 nM

Compound: CN1CC[C@]23c4c5cccc4O[C@H]2C(=O)CC[C@@]3(NC(=O)/C=C/c2ccccc2Cl)[C@H]1C5
- ED50 [1]: 0.04 mg/kg
- EC50 [2]: 0.04 nM
- EC50 [4]: 0.1 nM
- AD50 [5]: >30 mg/kg
- ED50 [8]: 0.12 mg/kg
- EC50 [9]: 0.1 nM

Compound: CN1CC[C@]23c4c5ccc(O)c4O[C@H]2C(=O)CC[C@@]3(NC(=O)/C=C/c2ccc([N+](=O)[O-])cc2)[C@H]1C5
- Ke [17]: 1.4 nM
- Ke [18]: 0.13 nM
- Ke [19]: 3.3 nM
- Ki [6]: 5.5 nM
- Ki [7]: 0.2 nM
- Ki [10]: 0.54 nM
